Test results as given in patent publication US9181193B2, “Indenoquinolone compound, preparation method and use thereof” (Second Military Medical University, PLA, priority 2010, dated 2015).

Experiments:
Assay type in all cases: cell-based
[1] = system: A549 (human lung cancer cells); test: MTT in vitro anti-tumor activity test, A549
[2] = system: Colo205 (human colon cancer cells); test: MTT in vitro anti-tumor activity test, Colo205
[3] = system: MDA-MB-435 (human breast cancer cells); test: MTT in vitro anti-tumor activity test, MDA-MB-435
[4] = system: HepG2 (human hepatoma cells); test: MTT in vitro anti-tumor activity test, HepG2
[5] = A549 human lung cancer cells, MTT, 72 h
[6] = Colo205 human colon cancer cells, MTT, 72 h
[7] = MDA-MB-435, 100 μg/mL, MTT, 72 h
[8] = MDA-MB-435 human breast cancer cells, MTT, 72 h
[9] = HepG2 human hepatoma cells, MTT, 72 h
[10] = MTT assay, 72 h incubation, A549 cells
[11] = inhibition at 100 μg/mL, MTT assay, 72 h, A549 cells
[12] = MTT assay, 72 h incubation, Colo205 cells
[13] = inhibition at 100 μg/mL, MTT assay, 72 h, Colo205 cells
[14] = MTT assay, 72 h incubation, MDA-MB-435 cells
[15] = inhibition at 100 μg/mL, MTT assay, 72 h, MDA-MB-435 cells
[16] = MTT assay, 72 h incubation, HepG2 cells
[17] = inhibition at 100 μg/mL, MTT assay, 72 h, HepG2 cells

Compound	A549 IC50 [1, 5] [µg/mL]	Colo205 IC50 [2, 6] [µg/mL]	MDA-MB-435 IC50 [3, 8] [µg/mL]	HepG2 IC50 [4, 9] [µg/mL]	A549 IC50 [1, 10] [µg/mL]	Colo205 IC50 [2, 12] [µg/mL]	MDA-MB-435 IC50 [3, 14] [µg/mL]	HepG2 IC50 [4, 16]	A549 100 μg/mL IC % ([1]; A549, 100 μg/mL, MTT, 72 h) [%]	Colo205 100 μg/mL IC % ([2]; Colo205, 100 μg/mL, MTT, 72 h) [%]	MDA-MB-435 100 μg/mL IC % [3, 7] [%]	HepG2 100 μg/mL IC % ([4]; HepG2, 100 μg/mL, MTT, 72 h) [%]	A549 100 μg/mL IC % [1, 11] [%]	Colo205 100 μg/mL IC % [2, 13] [%]	MDA-MB-435 100 μg/mL IC % [3, 15] [%]	HepG2 100 μg/mL IC % [4, 17] [%]
COc1ccc2c(c1)C(=O)c1c-2c(=O)n(CCN2CCOCC2)c2cc(OC)c(OC)cc12 [Compound 45]					37.85	16.76	7.86	6.27 µg/mL					62.84	66.89	72.95	84.31
COc1ccc2c(c1)-c1c(c3cc(OC)ccc3n(CCN(C)C)c1=O)C2=O [Compound 42]					8.03	1.27	3.12	3.77 µg/mL					87.75	100	100	100
COc1ccc2c(c1)C(=O)c1c-2c(=O)n(CCN2CCCC2)c2cc(OC)c(OC)cc12 [Compound 44]					1.42	0.346	0.014	1.93 µg/mL					94.74	92.66	78.20	84.59
COc1ccc2c(c1)c1c(c(=O)n2CCn2ccnc2)-c2ccc(Br)cc2C1=O [Compound 43]					>100	34.21	83.60	>100 µg/mL					4.26	87.42	53.07	9.73
COc1ccc2c(c1)C(=O)c1c-2c(=O)n(CCCN(C)C)c2ccccc12 [Compound 34]					6.58	6.82	19.78	≈100 μg/mL					100	99.54	100	49.68
O=C1c2cc(Cl)ccc2-c2c1c1ccccc1n(CCN1CCCCC1)c2=O [Compound 39]					>100	>100	>100	>100 µg/mL					47.81	13.12	14.88	22.39
COc1ccc2c(c1)C(=O)c1c-2c(OCCN2CCCC2)nc2ccccc12 [Compound 3]	14.39	10.97	26.55	24.99					99.90	92.33	100	80.79				
O=C1c2cc(Cl)ccc2-c2c1c1ccccc1n(CCn1ccnc1)c2=O [Compound 38]					13.16	18.77	9.37	22.97 µg/mL					100	95.16	100	88.62
COc1ccc2c(c1)C(=O)c1c-2c(OCCN2CCOCC2)nc2ccccc12 [Compound 5]	>100	>100	>100	>100					48.72	43.88	19.75	13.97				
O=C1c2cc(Cl)ccc2-c2c(OCCN3CCCCC3)nc3ccccc3c21 [Compound 11]	32.73	39.33	44.76	55.62					69.84	69.24	69.43	63.27				
CCN(CC)CCn1c(=O)c2c(c3ccccc31)C(=O)c1cc(Cl)ccc1-2 [Compound 36]					78.22	28.58	28.86	61.69 µg/mL					61.01	79.84	83.69	59.74

Further lines, with some results ahead:

A549 IC50 [1, 5] [µg/mL]	Colo205 IC50 [2, 6] [µg/mL]	MDA-MB-435 IC50 [3, 8] [µg/mL]	HepG2 IC50 [4, 9] [µg/mL]	A549 IC50 [1, 10] [µg/mL]	Colo205 IC50 [2, 12] [µg/mL]	MDA-MB-435 IC50 [3, 14] [µg/mL]	HepG2 IC50 [4, 16]	Compound	A549 100 μg/mL IC % ([1]; A549, 100 μg/mL, MTT, 72 h) [%]	Colo205 100 μg/mL IC % ([2]; Colo205, 100 μg/mL, MTT, 72 h) [%]	MDA-MB-435 100 μg/mL IC % [3, 7] [%]	HepG2 100 μg/mL IC % ([4]; HepG2, 100 μg/mL, MTT, 72 h) [%]	A549 100 μg/mL IC % [1, 11] [%]	Colo205 100 μg/mL IC % [2, 13] [%]	MDA-MB-435 100 μg/mL IC % [3, 15] [%]	HepG2 100 μg/mL IC % [4, 17] [%]
5.78	7.10	12.28	15.99					O=C1c2cc(Cl)ccc2-c2c(OCCN3CCCC3)nc3ccccc3c21 [Compound 9]	100	71.11	100	82.92				
17.27	1.79	4.34	2.47					COc1ccc2c(c1)C(=O)c1c-2c(OCCN(C)C)nc2ccc(OC)cc12 [Compound 13]	100	96.52	100	100				
18.26	6.70	4.98	10.31					COc1ccc2c(c1)-c1c(OCCN(C)C)nc3ccc(OC)cc3c1C2=O [Compound 17]	85.30	100	100	100				
				19.04	3.89	3.88	20.09 µg/mL	CN(C)CCn1c(=O)c2c(c3ccccc31)C(=O)c1cc(Cl)ccc1-2 [Compound 35]					72.15	100	100	100
1.04	1.47	1.45	3.71					COc1cc2nc(OCCCN(C)C)c3c(c2cc1OC)C(=O)c1cc(Cl)ccc1-3 [Compound 29]	100	98.69	100	91.20				
6.95	3.13	6.88	5.02					COc1ccc2c(c1)C(=O)c1c-2c(OCCN2CCCCC2)nc2ccc(OC)cc12 [Compound 15]	100	100	99.08	100				
10.32	5.15	8.92	10.78					COc1ccc2c(c1)C(=O)c1c-2c(OCCN2CCCCC2)nc2cc(OC)c(OC)cc12 [Compound 24]	93.92	98.38	90.85	98.55				
28.56	15.16	31.62	28.84					CCN(CC)CCOc1nc2ccccc2c2c1-c1ccc(Cl)cc1C2=O [Compound 8]	84.24	99.01	100	73.57				
